Legend:
[1] = Ocular distribution of Compound IIIC after intravitreal administration (LC-MS/MS of ocular tissues); format: in vivo, New Zealand White rabbits; settings: for Levels in the lens: intravitreal
Source text: New Zealand White rabbits obtained from the Western Oregon Rabbit Company were used for this study. 12 animals were used in this study, and all animals used were male. Prior to treatment initiation, selection of animals for the study was based on a visual appraisal of good clinical condition and body weight specifications. Animals selected for use in this study were as uniform in age and weight as possible. Animal's weights ranged from about 2.58 to about 3.22 kilograms at the start of the experiment. All animals were healthy at the time of animal selection. All animals were identified by ear tag and by cage cards listing the animal identification number, study number, group, and sex of the animal.
The compound of formula IIIC was tested at two different concentrations, 3% weight/volume and 0.5% weight/volume. For both concentrations the compound was formulated as an aqueous suspension. Details of the formulations are as follows: Formulation 1: 3% of ˜500 nm nanoparticles of a compound of formula IIIC in 0.6% tromethamine as buffer, 0.1% polysorbate-80 to aide in dispersion of the API, pH adjusted with boric acid to 7.4, and osmolarity adjusted with mannitol to 293 mOsm. Formulation 2: 0.5% of ˜500 nm nanoparticles of a compound of formula IIIC in 0.6% tromethamine as buffer, 0.1% polysorbate-80 to aide in dispersion of the API, pH adjusted with boric acid to 7.4, and osmolarity adjusted with mannitol to 293 mOsm.
Animals were assigned to one of two experimental groups based on body weight, such that each group contained 6 animals. Animals in group 1 were administered 25 μL for formulation 1 by intravitreous injection, while animals in group 2 were administered 25 μL of formulation 2. Within each group animals were further divided into 3 time points, 2 hours, 1 day and 7 days. Each time point consisted of two animals. Administration of formulations 1 and 2 occurred at time 0.
For intravitreal injections animals were anesthetized with an intramuscular injection of ketamine hydrochloride (12 to 20 mg/kg) and xylazine (5 mg/kg). One to two drops of topical proparacaine hydrochloride anesthetic (0.5%) were applied to the animal's eyes prior to the surgical procedure. The eyes were cleaned with Betadine and then rinsed with balanced salt solution (BSS). Test article was drawn up directly into a 0.3 mL insulin syringe with a 31G 5/16 inch needle, and injections were made 4 to 5 mm away from the limbus. Once the needle was inserted, 25 μL of the test article was injected. The needle was removed and the eye rinsed with BSS. […] Animals were monitored during recovery.
Animals were euthanized at the designated time points by an intravenous injection of pentobarbital (150 mg/kg). […] The concentration of compound IIIC in each collected sample was measured by LC-MS/MS. […]

[2] = Kinetics of compound accumulation in the lens of entire human globes soaked one to four days; format: in vitro ADME; settings: human globes in 1 mM API in 8% cyclodextrin in PBS, room temperature
Protocol: In a similar experiment, entire human globes were used to determine the kinetics of compound accumulation in the lens. A total of eight globes were soaked in a solution of 1 mM API in 8% cyclodextrin in PBS for one, two, three, or four days at room temperature.

[3] = Ex vivo human tissue pharmacokinetic experiment: entire human globes soaked six days, C29 exposure in areas of the eye; format: in vitro ADME; settings: for Calculated Concentration: globe soaked in 1 mM API in 8% cyclodextrin in PBS, six days, room temperature; for Dilution Corrected Concentration: six days soak, 1 mM API in 8% cyclodextrin in PBS
Protocol: Pharmacokinetic experiments were performed on entire human globes (eye without appendages) to determine exposure of the compound (C29) in various areas of the eye. Each globe was obtained less than 24 hours after collection and then soaked in either a solution of 1 mM API in 8% cyclodextrin in PBS or only PBS for six days at room temperature.

## C[C@H](CCCC(C)(C)O)[C@H]1CC[C@H]2[C@@H]3CC=C4C[C@@H](O)CC[C@]4(C)[C@H]3CC[C@]12C [Compound C29, 25-hydroxycholesterol]
[1]; intravitreal 25 μL, 3% and 0.5% formulation, 2 hr, 24 hr, 168 hr
  levels in the vitreous humor, course over time: decreased steadily at later time points
[1]; intravitreal 25 μL, 3% versus 0.5% formulation, 2 hr, 24 hr, 168 hr
  levels in the vitreous humor, dependence on dose: dose-dependent
[1]; earlier time points
  Levels in the lens: undetectable
[1]; higher-dosed group, last time point (7 days after dosing)
  Levels in the lens: consistently exhibiting detectable levels
[2]; 1 day of incubation
  Average Concentration in Lens: 14.5 µM
[2]; 2 days of incubation
  Average Concentration in Lens: 20.7 µM
[2]; 3 days of incubation
  Average Concentration in Lens: 39.8 µM
[2]; 4 days of incubation
  Average Concentration in Lens: 37.8 µM
[3]; Human Cornea
  Calculated Concentration: 2120 nM
  Dilution Corrected Concentration: 4.24 µM
[3]; Human Iris
  Calculated Concentration: 1330 nM
  Dilution Corrected Concentration: 2.66 µM
[3]; Human Lens
  Calculated Concentration: 7620 nM
  Dilution Corrected Concentration: 15.24 µM
[3]; Human Retina
  Calculated Concentration: 4310 nM
  Dilution Corrected Concentration: 8.62 µM
[3]; Human Vitreous Humor
  Calculated Concentration: 2410 nM
  Dilution Corrected Concentration: 4.82 µM

Reference: patent US20180250313A1, “COMPOUNDS AND FORMULATIONS FOR TREATING OPHTHALMIC DISEASES” (VIEWPOINT THERAPEUTICS, INC., priority 2015, published 2018)
